Test results reported in patent publication US20240307382A1, “MODULATORS OF THE INTEGRATED STRESS PATHWAY” (Calico Life Sciences LLC, priority 2017, published 2024).

System: HEK293T cells carrying the ATF4 luciferase reporter
Assay: ATF4-Luc assay (ATF4 luciferase reporter, tunicamycin-treated cells)
Type: cell-based
Conditions: Homo sapiens, HEK-293T, 1 μg/mL tunicamycin, 7 hours
Protocol: In order to test exemplary compounds of the invention in a cellular context, a stable VWMD cell line was first constructed. The ATF4 reporter was prepared by fusing the human full-length ATF4 5′-UTR (NCBI Accession No. BC022088.2) in front of the firefly luciferase (FLuc) coding sequence lacking the initiator methionine as described in Sidrauski et al (eLife 2013). The construct was used to produce recombinant retroviruses using standard methods and the resulting viral supermatant was used to transduce ITEK293T cells, which were then subsequently selected with puromycin to generate a stable cell line.
HTEK293T cells carrying the ATF4 luciferase reporter were plated on polylysine coated 384-well plates (Greiner Bio-one) at 30,000 cells per well. Cells were treated the next day with 1 μg/mL tunicamycin and 200 nM of a compound of Formula (I) for 7 hours. Luminescence was measured using One Glo (Promega) as specified by the manufacturer. Cells were maintained in DMEM with L-glutamine supplemented with 10% heat-inactivated FBS (Gibco) and Antibiotic-Antimycotic solution (Gibco).
Table 2 below summarizes the EC50 data obtained using the ATF4-Luc assay for exemplary compounds of the invention.

| SMILES | EC50 |
| --- | --- |
| O=C(COc1ccc(Cl)c(F)c1)NC12CCC(NC(=O)c3ccc4cc(F)ccc4n3)(CC1)C[C@@H]2O [Compound 998, N-{(3S)-4-[2-(4-chloro-3-fluorophenoxy)acetamido]-3-hydroxybicyclo[2.2.2]octan-1-yl}-6-fluoroquinoline-2-carboxamide] | < 50 nM |
| O=C(COc1ccc(Cl)c(Cl)c1)NC12CCC(NC(=O)c3ccc4cc(F)ccc4n3)(CC1)C[C@@H]2O [Compound 999, N-{(3S)-4-[2-(3,4-dichlorophenoxy)acetamido]-3-hydroxybicyclo[2.2.2]octan-1-yl}-6-fluoroquinoline-2-carboxamide] | < 50 nM |
| O=C(COc1ccc(Cl)c(Cl)c1)NC12CCC(NC(=O)c3ccc(C(F)(F)F)o3)(CC1)C[C@@H]2O [Compound 1000, N-{(3S)-4-[2-(3,4-dichlorophenoxy)acetamido]-3-hydroxybicyclo[2.2.2]octan-1-yl}-5-(trifluoromethyl)furan-2-carboxamide] | < 50 nM |
| O=C(COc1ccc(Cl)c(Cl)c1)NC12CCC(NC(=O)c3ccc(OC(F)(F)F)nc3)(CC1)C[C@@H]2O [Compound 1001, N-{(3S)-4-[2-(3,4-dichlorophenoxy)acetamido]-3-hydroxybicyclo[2.2.2]octan-1-yl}-6-(trifluoromethoxy)pyridine-3-carboxamide] | < 50 nM |
| Cc1cc(C(=O)NC23CCC(NC(=O)COc4ccc(Cl)c(Cl)c4)(CC2)[C@@H](O)C3)sn1 [Compound 1002, N-{(3S)-4-[2-(3,4-dichlorophenoxy)acetamido]-3-hydroxybicyclo[2.2.2]octan-1-yl}-3-methyl-1,2-thiazole-5-carboxamide] | < 50 nM |
| O=C(COc1ccc(Cl)c(Cl)c1)NC12CCC(NC(=O)c3cc(CO)ccn3)(CC1)C[C@@H]2O [Compound 1003, N-{(3S)-4-[2-(3,4-dichlorophenoxy)acetamido]-3-hydroxybicyclo[2.2.2]octan-1-yl}-4-(hydroxymethyl)pyridine-2-carboxamide] | < 50 nM |
| O=C(COc1ccc(Cl)c(F)c1)NC12CCC(NC(=O)c3coc(C(F)(F)F)n3)(CC1)C[C@@H]2O [Compound 1004, N-{(3S)-4-[2-(4-chloro-3-fluorophenoxy)acetamido]-3-hydroxybicyclo[2.2.2]octan-1-yl}-2-(trifluoromethyl)-1,3-oxazole-4-carboxamide] | < 50 nM |
| O=C(COc1ccc(Cl)c(Cl)c1)NC12CCC(NC(=O)c3cnc4cc(F)ccc4n3)(CC1)C[C@@H]2O [Compound 1005, N-{(3S)-4-[2-(3,4-dichlorophenoxy)acetamido]-3-hydroxybicyclo[2.2.2]octan-1-yl}-6-fluoroquinoxaline-2-carboxamide] | < 50 nM |
| O=C(COc1ccc(Cl)c(F)c1)NC12CCC(NC(=O)c3cnc4cc(F)ccc4n3)(CC1)C[C@@H]2O [Compound 1006, N-{(3S)-4-[2-(4-chloro-3-fluorophenoxy)acetamido]-3-hydroxybicyclo[2.2.2]octan-1-yl}-6-fluoroquinoxaline-2-carboxamide] | < 50 nM |
| Cn1nc(C(=O)NC23CCC(NC(=O)COc4ccc(Cl)c(Cl)c4)(CC2)[C@@H](O)C3)cc1C(F)(F)F [Compound 1007, N-{(3S)-4-[2-(3,4-dichlorophenoxy)acetamido]-3-hydroxybicyclo[2.2.2]octan-1-yl}-1-methyl-5-(trifluoromethyl)-1H-pyrazole-3-carboxamide] | < 50 nM |
| O=C(COc1ccc(Cl)c(Cl)c1)NC12CCC(NC(=O)c3cnc4ccccc4n3)(CC1)C[C@@H]2O [Compound 1008, N-{(3S)-4-[2-(3,4-dichlorophenoxy)acetamido]-3-hydroxybicyclo[2.2.2]octan-1-yl}quinoxaline-2-carboxamide] | < 50 nM |
| O=C(COc1ccc(Cl)c(Cl)c1)NC12CCC(NC(=O)c3coc(C(F)(F)F)n3)(CC1)C[C@@H]2O [Compound 1009, N-{(3S)-4-[2-(3,4-dichlorophenoxy)acetamido]-3-hydroxybicyclo[2.2.2]octan-1-yl}-2-(trifluoromethyl)-1,3-oxazole-4-carboxamide] | < 50 nM |
| Cn1nc(C(F)F)cc1C(=O)NC12CCC(NC(=O)COc3ccc(Cl)c(Cl)c3)(CC1)[C@@H](O)C2 [Compound 1010, N-{(3S)-4-[2-(3,4-dichlorophenoxy)acetamido]-3-hydroxybicyclo[2.2.2]octan-1-yl}-3-(difluoromethyl)-1-methyl-1H-pyrazole-5-carboxamide] | < 50 nM |
| O=C(COc1ccc(Cl)c(Cl)c1)NC12CCC(NC(=O)c3cnc(C(F)(F)F)cn3)(CC1)C[C@@H]2O [Compound 1011, N-{(3S)-4-[2-(3,4-dichlorophenoxy)acetamido]-3-hydroxybicyclo[2.2.2]octan-1-yl}-5-(trifluoromethyl)pyrazine-2-carboxamide] | 50 to 250 nM |
| CC(C)c1cc(C(=O)NC23CCC(NC(=O)COc4ccc(Cl)c(Cl)c4)(CC2)[C@@H](O)C3)on1 [Compound 1012, N-{(3S)-4-[2-(3,4-dichlorophenoxy)acetamido]-3-hydroxybicyclo[2.2.2]octan-1-yl}-3-(propan-2-yl)-1,2-oxazole-5-carboxamide] | < 50 nM |
| O=C(COc1ccc(Cl)c(Cl)c1)NC12CCC(NC(=O)c3cc(C4CC4)no3)(CC1)C[C@@H]2O [Compound 1013, 3-cyclopropyl-N-{(3S)-4-[2-(3,4-dichlorophenoxy)acetamido]-3-hydroxybicyclo[2.2.2]octan-1-yl}-1,2-oxazole-5-carboxamide] | < 50 nM |
| O=C(COc1ccc(Cl)c(Cl)c1)NC12CCC(NC(=O)c3ccc(N4CCCC4)cn3)(CC1)C[C@@H]2O [Compound 1014, N-{(3S)-4-[2-(3,4-dichlorophenoxy)acetamido]-3-hydroxybicyclo[2.2.2]octan-1-yl}-5-(pyrrolidin-1-yl)pyridine-2-carboxamide] | > 2000 nM |
| Cc1cc(C(=O)NC23CCC(NC(=O)COc4ccc(F)c(Cl)c4)(CC2)[C@@H](O)C3)on1 [Compound 1015, N-{(3S)-4-[2-(3-chloro-4-fluorophenoxy)acetamido]-3-hydroxybicyclo[2.2.2]octan-1-yl}-3-methyl-1,2-oxazole-5-carboxamide] | 50 to 250 nM |
| Cc1cc(C(=O)NC23CCC(NC(=O)COc4ccc(Cl)cc4)(CC2)[C@@H](O)C3)on1 [Compound 1016, N-{(3S)-4-[2-(4-chlorophenoxy)acetamido]-3-hydroxybicyclo[2.2.2]octan-1-yl}-3-methyl-1,2-oxazole-5-carboxamide] | 50 to 250 nM |
| O=C(COc1ccc(Cl)c(Cl)c1)NC12CCC(NC(=O)c3cc(C(F)(F)F)no3)(CC1)C[C@@H]2O [Compound 1017, N-{(3S)-4-[2-(3,4-dichlorophenoxy)acetamido]-3-hydroxybicyclo[2.2.2]octan-1-yl}-3-(trifluoromethyl)-1,2-oxazole-5-carboxamide] | < 50 nM |
| O=C(COc1ccc(Cl)c(F)c1)NC12CCC(NC(=O)c3cc(-c4ccccc4)no3)(CC1)C[C@@H]2O [Compound 1018, N-{(3S)-4-[2-(4-chloro-3-fluorophenoxy)acetamido]-3-hydroxybicyclo[2.2.2]octan-1-yl}-3-phenyl-1,2-oxazole-5-carboxamide] | < 50 nM |
| CCc1c(C(=O)NC23CCC(NC(=O)COc4ccc(Cl)c(F)c4)(CC2)[C@@H](O)C3)nn(C)c1-c1ccccc1 [Compound 1019, N-{(3S)-4-[2-(4-chloro-3-fluorophenoxy)acetamido]-3-hydroxybicyclo[2.2.2]octan-1-yl}-4-ethyl-1-methyl-5-phenyl-1H-pyrazole-3-carboxamide] | 1000 to 2000 nM |
| Cn1nc(-c2ccccc2)cc1C(=O)NC12CCC(NC(=O)COc3ccc(Cl)c(F)c3)(CC1)[C@@H](O)C2 [Compound 1020, N-{(3S)-4-[2-(4-chloro-3-fluorophenoxy)acetamido]-3-hydroxybicyclo[2.2.2]octan-1-yl}-1-methyl-3-phenyl-1H-pyrazole-5-carboxamide] | < 50 nM |
| Cc1oc(-c2ccccc2)cc1C(=O)NC12CCC(NC(=O)COc3ccc(Cl)c(F)c3)(CC1)[C@@H](O)C2 [Compound 1021, N-{(3S)-4-[2-(4-chloro-3-fluorophenoxy)acetamido]-3-hydroxybicyclo[2.2.2]octan-1-yl}-2-methyl-5-phenylfuran-3-carboxamide] | < 50 nM |
| O=C(COc1ccc(Cl)c(F)c1)NC12CCC(NC(=O)c3cc(-c4ccccc4)[nH]n3)(CC1)C[C@@H]2O [Compound 1022, N-{(3S)-4-[2-(4-chloro-3-fluorophenoxy)acetamido]-3-hydroxybicyclo[2.2.2]octan-1-yl}-5-phenyl-1H-pyrazole-3-carboxamide] | < 50 nM |
| Cn1ncc2cc(C(=O)NC34CC(NC(=O)COc5ccc(Cl)c(F)c5)(C3)C4)ccc21 [Compound 1023, N-{3-[2-(4-chloro-3-fluorophenoxy)acetamido]bicyclo[1.1.1]pentan-1-yl}-1-methyl-1H-indazole-5-carboxamide] | 250 to 1000 nM |
| O=C(COc1ccc(Cl)c(Cl)c1)NC12CCC(NC(=O)c3ccc(OC(F)(F)F)cn3)(CC1)C[C@@H]2O [Compound 1024, N-{(3S)-4-[2-(3,4-dichlorophenoxy)acetamido]-3-hydroxybicyclo[2.2.2]octan-1-yl}-5-(trifluoromethoxy)pyridine-2-carboxamide] | < 50 nM |
| O=C(COc1ccc(Cl)c(Cl)c1)NC12CCC(NC(=O)c3cccc(O)n3)(CC1)C[C@@H]2O [Compound 1025, N-{(3S)-4-[2-(3,4-dichlorophenoxy)acetamido]-3-hydroxybicyclo[2.2.2]octan-1-yl}-6-hydroxypyridine-2-carboxamide] | < 50 nM |
